Laboratory results reported in PubChem BioAssay AID248 (DTP/NCI, 2004).
Toxic doses and inconclusive results are not listed.

System: L1210 leukemia ip in BDF1 mice, survival T/C
Assay: NCI In Vivo Anticancer Drug Screen. Data for tumor model L1210 Leukemia (intraperitoneal) in B6D2F1 (BDF1) mice
Conditions: endpoint: mean survival time, higher = longer survival
Procedure, shortened: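 Tumor was transplanted into mice, which were then dosed with test compound or vehicle alone. Survival was recorded for each group, and the treated figure was expressed relative to the control figure.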

[1] = dose: 100.0 mg/kg/injection, schedule: Q04DX003 (ip), vehicle: saline
[2] = dose: 200.0 mg/kg/injection, schedule: Q04DX003 (ip), vehicle: saline
[3] = dose: 400.0 mg/kg/injection, schedule: Q04DX003 (ip), vehicle: saline
[4] = dose: 100.0 mg/kg/injection, schedule: Q01DX001 (ip), vehicle: carboxymethylcellulose (CMC)
[5] = dose: 200.0 mg/kg/injection, schedule: Q01DX001 (ip), vehicle: carboxymethylcellulose (CMC)
[6] = dose: 400.0 mg/kg/injection, schedule: Q01DX001 (ip), vehicle: carboxymethylcellulose (CMC)
[7] = dose: 25.0 mg/kg/injection, schedule: Q04DX003 (ip), vehicle: saline with Tween-80
[8] = dose: 50.0 mg/kg/injection, schedule: Q04DX003 (ip), vehicle: saline with Tween-80
[9] = dose: 100.0 mg/kg/injection, schedule: Q04DX003 (ip), vehicle: saline with Tween-80
[10] = dose: 50.0 mg/kg/injection, schedule: Q01DX001 (ip), vehicle: saline
[11] = dose: 100.0 mg/kg/injection, schedule: Q01DX001 (ip), vehicle: saline
[12] = dose: 200.0 mg/kg/injection, schedule: Q01DX001 (ip), vehicle: saline
[13] = dose: 100.0 mg/kg/injection, schedule: Q01DX009 (ip), vehicle: saline
[14] = dose: 200.0 mg/kg/injection, schedule: Q01DX009 (ip), vehicle: saline
[15] = dose: 400.0 mg/kg/injection, schedule: Q01DX009 (ip), vehicle: saline
[16] = dose: 100.0 mg/kg/injection, schedule: Q04DX002 (ip), vehicle: saline with Tween-80
[17] = dose: 200.0 mg/kg/injection, schedule: Q04DX002 (ip), vehicle: saline with Tween-80
[18] = dose: 400.0 mg/kg/injection, schedule: Q04DX002 (ip), vehicle: saline with Tween-80
[19] = dose: 100.0 mg/kg/injection, schedule: Q01DX009 (ip), vehicle: Klucel (hydroxypropylcellulose) (HPC)
[20] = dose: 200.0 mg/kg/injection, schedule: Q01DX009 (ip), vehicle: Klucel (hydroxypropylcellulose) (HPC)
[21] = dose: 400.0 mg/kg/injection, schedule: Q01DX009 (ip), vehicle: Klucel (hydroxypropylcellulose) (HPC)
[22] = dose: 50.0 mg/kg/injection, schedule: Q01DX009 (ip), vehicle: Klucel (hydroxypropylcellulose) (HPC)
[23] = dose: 100.0 mg/kg/injection, schedule: Q04DX003 (ip), vehicle: Klucel (hydroxypropylcellulose) (HPC)
[24] = dose: 200.0 mg/kg/injection, schedule: Q04DX003 (ip), vehicle: Klucel (hydroxypropylcellulose) (HPC)
[25] = dose: 400.0 mg/kg/injection, schedule: Q04DX003 (ip), vehicle: Klucel (hydroxypropylcellulose) (HPC)

With `CC1(C)OCC(N)(CO)CO1` the T/C (dose: 100.0 mg/kg/injection, schedule: Q01DX005 (ip), vehicle: water) was 105 % of control, the T/C (dose: 100.0 mg/kg/injection, schedule: Q04DX003 (ip), vehicle: water) was 109 % of control and the T/C (dose: 200.0 mg/kg/injection, schedule: Q01DX005 (ip), vehicle: water) was 107 % of control. The T/C (dose: 200.0 mg/kg/injection, schedule: Q04DX003 (ip), vehicle: water) was 108 % of control, the T/C (dose: 400.0 mg/kg/injection, schedule: Q01DX005 (ip), vehicle: water) was 97 % of control and the T/C (dose: 400.0 mg/kg/injection, schedule: Q04DX003 (ip), vehicle: water) was 98 % of control.
For `CCN(CC)CCN(C(=O)Cc1cccc2ccccc12)c1ccccc1N`, the T/C (dose: 19.0 mg/kg/injection, schedule: Q04DX003 (ip), vehicle: acid diluted with saline) was 94 % of control, the T/C (dose: 38.0 mg/kg/injection, schedule: Q04DX003 (ip), vehicle: acid diluted with saline) was 102 % of control and the T/C (dose: 75.0 mg/kg/injection, schedule: Q01DX001 (ip), vehicle: acid diluted with saline) was 105 % of control. For the same compound, the T/C (dose: 75.0 mg/kg/injection, schedule: Q04DX003 (ip), vehicle: acid diluted with saline) was 100 % of control.
For `COC(=O)C1CC2C(CCC3C(C)(C(=O)OC)CCCC23C)C(=O)C1(O)C(C)C` (stereo not given), the T/C (dose: 100.0 mg/kg/injection, schedule: Q01DX009 (ip), vehicle: saline with Tween-80) was 95 % of control, the T/C (dose: 200.0 mg/kg/injection, schedule: Q01DX009 (ip), vehicle: saline with Tween-80) was 90 % of control and the T/C (dose: 400.0 mg/kg/injection, schedule: Q01DX009 (ip), vehicle: saline with Tween-80) was 91 % of control.
For `O=C(Cl)C12CCC(CC1)C1CCC2CC1`, the T/C [1] was 86 % of control, the T/C [2] was 92 % of control and the T/C [3] was 97 % of control.
With `O=C(/C=C\c1ccc(C(=O)Nc2ccc(C3=NCCN3)cc2)cc1)Nc1ccc(C2=NCCN2)cc1` the T/C (dose: 6.0 mg/kg/injection, schedule: Q01DX Z (ip), vehicle: water) was 110 % of control, the T/C (dose: 11.0 mg/kg/injection, schedule: Q01DX Z (ip), vehicle: water) was 102 % of control and the T/C (dose: 15.0 mg/kg/injection, schedule: Q01DX Z (ip), vehicle: saline) was 114 % of control. For the same compound, the T/C (dose: 22.0 mg/kg/injection, schedule: Q01DX Z (ip), vehicle: water) was 104 % of control, the T/C (dose: 30.0 mg/kg/injection, schedule: Q01DX Z (ip), vehicle: saline) was 120 % of control and the T/C (dose: 45.0 mg/kg/injection, schedule: Q01DX Z (ip), vehicle: water) was 107 % of control. For the same compound, the T/C (dose: 60.0 mg/kg/injection, schedule: Q01DX Z (ip), vehicle: saline) was 122 % of control, the T/C (dose: 120.0 mg/kg/injection, schedule: Q01DX Z (ip), vehicle: saline) was 113 % of control and the T/C (dose: 240.0 mg/kg/injection, schedule: Q01DX Z (ip), vehicle: saline) was 117 % of control. The T/C (dose: 480.0 mg/kg/injection, schedule: Q01DX Z (ip), vehicle: saline) was 103 % of control.
`O=C(O)CNCc1ccccc1` was tested, and the T/C [1] was 102 % of control, the T/C [2] was 96 % of control and the T/C [3] was 96 % of control.
`CS(=O)(=O)OCCN(CCOS(C)(=O)=O)c1ccc(C=Nc2ccc(-c3csc(-c4ccc(Cl)cc4)n3)cc2)cc1` was tested, and the T/C (dose: 66.0 mg/kg/injection, schedule: Q04DX003 (ip), vehicle: Klucel (hydroxypropylcellulose) (HPC)) was 122 % of control and the T/C (dose: 150.0 mg/kg/injection, schedule: Q04DX003 (ip), vehicle: Klucel (hydroxypropylcellulose) (HPC)) was 153 % of control.
With `O=C(O)c1ccccc1Cc1ccc2c(c1)Cc1ccccc1-2` the T/C [4] was 92 % of control, the T/C [5] was 94 % of control and the T/C [6] was 113 % of control.
For `C1=C[N]2c3c4c(ccc3=C1)=CC=C[N]4[Ga]2[c]1ccccc1`, the T/C [7] was 88 % of control, the T/C [8] was 97 % of control and the T/C [9] was 101 % of control.
With `NC(Cc1ccc(O)cc1)C(=O)CCl` (stereo not given) the T/C (dose: 25.0 mg/kg/injection, schedule: Q04DX002 (ip), vehicle: saline) was 110 % of control and the T/C (dose: 50.0 mg/kg/injection, schedule: Q04DX002 (ip), vehicle: saline) was 105 % of control.
`CNC(=S)N/N=C/c1cnccn1` was tested, and the T/C [10] was 100 % of control, the T/C [11] was 100 % of control and the T/C [12] was 104 % of control.
In the case of `O=c1[nH]nc(CCc2ccc([N+](=O)[O-])cc2)o1`, the T/C [13] is reported as 93 % of control, the T/C [14] is reported as 94 % of control and the T/C [15] is reported as 104 % of control.
For `CCN(CC)CCCC(C)Nc1ncnc2c1C(c1ccccc1)C(C)(C)O2` (stereo not given), the T/C [13] was 106 % of control, the T/C [14] was 101 % of control and the T/C [15] was 101 % of control.
For `CC(NC(=O)C(C)(C)C)c1ccc(-c2ccccc2)cc1` (stereo not given), the T/C [16] was 98 % of control, the T/C [17] was 95 % of control and the T/C [18] was 98 % of control.
With `CC1C(c2ccccc2)N1P(I)(c1ccccc1)(c1ccccc1)c1ccccc1` (stereo not given) the T/C (dose: 15.0 mg/kg/injection, schedule: Q01DX001 (ip), vehicle: carboxymethylcellulose (CMC)) was 116 % of control.
In the case of `CN(C)C(=O)Sc1ccc(Cl)cc1S(=O)(=O)F`, the T/C [19] is reported as 97 % of control, the T/C [20] is reported as 100 % of control and the T/C [21] is reported as 89 % of control.
In the case of `ClCCN(CCCCCCN(CCCl)Cc1ccccc1)Cc1ccccc1`, the T/C (dose: 2.5 mg/kg/injection, schedule: Q04DX002 (ip), vehicle: Klucel (hydroxypropylcellulose) (HPC)) is reported as 104 % of control and the T/C (dose: 5.0 mg/kg/injection, schedule: Q04DX002 (ip), vehicle: Klucel (hydroxypropylcellulose) (HPC)) is reported as 100 % of control.
With `O=C(Nc1ccccc1)c1cccnc1` the T/C [4] was 94 % of control, the T/C [5] was 91 % of control and the T/C [6] was 96 % of control.
With `c1cncc(SC23CC4CC(CC(C4)C2)C3)c1` the T/C [19] was 106 % of control, the T/C [20] was 93 % of control and the T/C [21] was 106 % of control.
`C(=C\C1SCCCS1)/c1ccccc1` was tested, and the T/C [16] was 101 % of control, the T/C [17] was 114 % of control and the T/C [18] was 101 % of control.
For `CSc1ccc(N=Cc2ccc3c(c2)OCO3)cc1`, the T/C [22] was 103 % of control, the T/C [19] was 97 % of control and the T/C [23] was 102 % of control. The T/C [20] was 99 % of control, the T/C [24] was 107 % of control and the T/C [25] was 94 % of control.
In the case of `O=S1(=O)c2ccccc2Oc2ccccc21`, the T/C (dose: 50.0 mg/kg/injection, schedule: Q01DX001 (ip), vehicle: other) is reported as 93 % of control, the T/C (dose: 100.0 mg/kg/injection, schedule: Q01DX001 (ip), vehicle: other) is reported as 93 % of control and the T/C (dose: 200.0 mg/kg/injection, schedule: Q01DX001 (ip), vehicle: other) is reported as 100 % of control. The T/C (dose: 400.0 mg/kg/injection, schedule: Q01DX001 (ip), vehicle: other) was 96 % of control.
In the case of `CCCC(=O)N(CC(C)C)CC(C)C`, the T/C [23] is reported as 101 % of control, the T/C [24] is reported as 95 % of control and the T/C [25] is reported as 97 % of control.
In the case of `Cc1cc(C)nc(NC(=O)COc2ccc(Cl)cc2)c1`, the T/C [22] is reported as 97 % of control, the T/C [19] is reported as 100 % of control and the T/C [23] is reported as 101 % of control. The T/C [20] was 93 % of control and the T/C [24] was 97 % of control.
`Cc1c(C(=O)O)nnn1-c1ccc(Cl)cc1Cl` was tested, and the T/C (dose: 100.0 mg/kg/injection, schedule: Q04DX002 (ip), vehicle: Klucel (hydroxypropylcellulose) (HPC)) was 97 % of control and the T/C (dose: 200.0 mg/kg/injection, schedule: Q04DX002 (ip), vehicle: Klucel (hydroxypropylcellulose) (HPC)) was 101 % of control.
With `Cc1cc[n+](Cc2ccccc2)cc1` the T/C (dose: 12.5 mg/kg/injection, schedule: Q04DX003 (ip), vehicle: saline) was 96 % of control and the T/C (dose: 25.0 mg/kg/injection, schedule: Q04DX003 (ip), vehicle: saline) was 90 % of control.
`c1ccc(-c2nncnn2)cc1` was tested, and the T/C [7] was 97 % of control, the T/C [8] was 92 % of control and the T/C [9] was 101 % of control.
In the case of `CN=C(C#N)c1ccc(OC)c(OC)c1`, the T/C [10] is reported as 102 % of control, the T/C [11] is reported as 96 % of control and the T/C [12] is reported as 102 % of control. The T/C (dose: 400.0 mg/kg/injection, schedule: Q01DX001 (ip), vehicle: saline) was 102 % of control.
